Data from paper PMC8841437 (Clinical and Translational Science, 2021).

Key:
[1] = Multiple ascending dose; settings: for Tmax: median (min-max)
[2] = test system: activated partial thromboplastin time (aPTT); assay: Activated partial thromboplastin time; type: in vivo, human
[3] = test system: prothrombin time; assay: Prothrombin time, ex vivo pharmacodynamics; type: in vivo, human; settings: SAD and MAD panels; data not shown
[4] = test system: healthy participants; assay: Safety and tolerability; type: in vivo, human; settings: for Abdominal discomfort (TEAE) / Abdominal pain (TEAE) / Any TEAE / Diarrhea (TEAE) / Dizziness (TEAE) / Headache (TEAE) / Nausea (TEAE) / Oropharyngeal pain (TEAE) / Pain in extremity (TEAE): n = 6
[5] = MAD panel 10, 200 mg q.d. fasted

In the case of `C[C@@H]1CCC[C@H](n2cnc(-c3cc(Cl)ccc3-n3cc(Cl)nn3)cc2=O)c2cc(ccn2)-c2c(cnn2C(F)F)NC1=O` [milvexian], the “time to steady-state plasma concentration” value ([1]; MAD 5-mg q.d. panel, visual inspection of trough concentrations) is reported as 1 dosing day, the “dose proportionality of increases in exposure” value ([1]; MAD day 14, 5-500 mg) is reported as “greater than dose‐proportional” and the “time to steady-state plasma concentration” value ([1]; MAD, once-daily dosing) is reported as no more than 3 dosing days. The AUC ([1]; human, in vivo, 5 mg, AUC(0‐T), MAD panel 7, 5 mg q.d. fasted, day 14, n = 5, geometric mean (geometric CV%)) was 146 ng·h/mL, the AUC ([1]; human, in vivo, 5 mg, AUC(TAU), MAD panel 7, 5 mg q.d. fasted, day 14, n = 5, geometric mean (geometric CV%)) was 146 ng·h/mL and the Cmax at 14 days ([1]; human, in vivo, 5 mg, Cmax, MAD panel 7, 5 mg q.d. fasted, day 14, n = 5, geometric mean (geometric CV%)) was 14.8 ng/mL. It also gave a Tmax ([1]; human, in vivo, 5 mg, MAD panel 7, 5 mg q.d. fasted, day 14, n = 5) of 2.03 h, an AUC ([1]; human, in vivo, 20 mg, AUC(0‐T), MAD panel 8, 20 mg q.d. fasted, day 14, n = 6, geometric mean (geometric CV%)) of 1660 ng·h/mL and an AUC ([1]; human, in vivo, 20 mg, AUC(TAU), MAD panel 8, 20 mg q.d. fasted, day 14, n = 6, geometric mean (geometric CV%)) of 1370 ng·h/mL. For the same compound, the Cmax at 14 days ([1]; human, in vivo, 20 mg, Cmax, MAD panel 8, 20 mg q.d. fasted, day 14, n = 6, geometric mean (geometric CV%)) was 171 ng/mL, the Tmax ([1]; human, in vivo, 20 mg, MAD panel 8, 20 mg q.d. fasted, day 14, n = 6) was 2.5 h and the AUC ([1]; human, in vivo, 70 mg, AUC(TAU), MAD panel 9, 70 mg q.d. fasted, day 14, n = 5, geometric mean (geometric CV%)) was 4220 ng·h/mL. It also gave a Cmax at 14 days ([1]; human, in vivo, 70 mg, Cmax, MAD panel 9, 70 mg q.d. fasted, day 14, n = 5, geometric mean (geometric CV%)) of 434 ng/mL, a Tmax ([1]; human, in vivo, 70 mg, MAD panel 9, 70 mg q.d. fasted, day 14, n = 5) of 3 h and an AUC ([1]; human, in vivo, 200 mg, AUC(0‐T), MAD panel 10, 200 mg q.d. fasted, day 14, n = 6, geometric mean (geometric CV%)) of 18900 ng·h/mL. For the same compound, the AUC ([1]; human, in vivo, 200 mg, AUC(TAU), MAD panel 10, 200 mg q.d. fasted, day 14, n = 6, geometric mean (geometric CV%)) was 14600 ng·h/mL, the Cmax at 14 days ([1]; human, in vivo, 200 mg, Cmax, MAD panel 10, 200 mg q.d. fasted, day 14, n = 6, geometric mean (geometric CV%)) was 1510 ng/mL and the Tmax ([1]; human, in vivo, 200 mg, MAD panel 10, 200 mg q.d. fasted, day 14, n = 6) was 3.5 h. For the same compound, the AUC ([1]; human, in vivo, 500 mg, AUC(0‐T), MAD panel 11, 500 mg q.d. fed, day 14, n = 6, geometric mean (geometric CV%)) was 142000 ng·h/mL, the AUC ([1]; human, in vivo, 500 mg, AUC(TAU), MAD panel 11, 500 mg q.d. fed, day 14, n = 6, geometric mean (geometric CV%)) was 95100 ng·h/mL and the Cmax ([1]; human, in vivo, 500 mg, Cmax, MAD panel 11, 500 mg q.d. fed, day 14, n = 6, geometric mean (geometric CV%)) was 7600 ng/mL. For the same compound, the Tmax ([1]; human, in vivo, 500 mg, MAD panel 11, 500 mg q.d. fed, day 14, n = 6) was 4 h, the half-life ([1]; human, in vivo, mean T1/2, range across MAD panels, MAD) was 11.4 to 18.1 h and the “maximal mean percent increase from baseline in aPTT” value (shortened to “maximal mean percent increase”) ([2]; fasted SAD panel 4 mg) was 11.9%. The “maximal mean percent increase” value ([2]; fasted SAD panel 20 mg) was 36.7%, the “maximal mean percent increase” value ([2]; fasted SAD panel 60 mg) was 85.2% and the “maximal mean percent increase” value ([2]; fasted SAD panel 200 mg) was 147.1%. The “maximal mean percent increase” value ([2]; fasted SAD panel 300 mg) was 140.8%, the “maximal mean percent increase” value ([2]; fasted SAD panel 500 mg) was 188.3% and the Prothrombin time [3] was “not increased at any time”. For the same compound, the epistaxis ([4]; MAD 5-mg q.d. group) was “one participant”, the gingival bleeding ([4]; MAD 5-mg q.d. group, considered treatment-related, mild) was “one participant” and the petechia ([4]; MAD 70-mg q.d. group, considered treatment-related, mild) was “one participant”. For the same compound, the “Abdominal discomfort (TEAE)” value ([4]; MAD panel 7, 5 mg q.d. fasted) was 1 (16.7) n (%), the “Abdominal pain (TEAE)” value ([4]; MAD panel 7, 5 mg q.d. fasted) was 0 n (%) and the “Any TEAE” value ([4]; MAD panel 7, 5 mg q.d. fasted) was 4 (66.7) n (%). For the same compound, the “Diarrhea (TEAE)” value ([4]; MAD panel 7, 5 mg q.d. fasted) was 1 (16.7) n (%), the “Dizziness (TEAE)” value ([4]; MAD panel 7, 5 mg q.d. fasted) was 0 n (%) and the “Headache (TEAE)” value ([4]; MAD panel 7, 5 mg q.d. fasted) was 2 (33.3) n (%). The “Nausea (TEAE)” value ([4]; MAD panel 7, 5 mg q.d. fasted) was 0 n (%), the “Oropharyngeal pain (TEAE)” value ([4]; MAD panel 7, 5 mg q.d. fasted) was 0 n (%) and the “Pain in extremity (TEAE)” value ([4]; MAD panel 7, 5 mg q.d. fasted) was 0 n (%). For the same compound, the “discontinuation of treatment because of an AE (macular rash)” value ([4]; MAD panel 7, after one dose of 5 mg) was “one participant”, the “Abdominal discomfort (TEAE)” value ([4]; MAD panel 8, 20 mg q.d. fasted) was 0 n (%) and the “Abdominal pain (TEAE)” value ([4]; MAD panel 8, 20 mg q.d. fasted) was 0 n (%). The “Any TEAE” value ([4]; MAD panel 8, 20 mg q.d. fasted) was 1 (16.7) n (%), the “Diarrhea (TEAE)” value ([4]; MAD panel 8, 20 mg q.d. fasted) was 0 n (%) and the “Dizziness (TEAE)” value ([4]; MAD panel 8, 20 mg q.d. fasted) was 0 n (%). For the same compound, the “Headache (TEAE)” value ([4]; MAD panel 8, 20 mg q.d. fasted) was 1 (16.7) n (%), the “Nausea (TEAE)” value ([4]; MAD panel 8, 20 mg q.d. fasted) was 0 n (%) and the “Oropharyngeal pain (TEAE)” value ([4]; MAD panel 8, 20 mg q.d. fasted) was 0 n (%). The “Pain in extremity (TEAE)” value ([4]; MAD panel 8, 20 mg q.d. fasted) was 0 n (%), the “Abdominal discomfort (TEAE)” value ([4]; MAD panel 9, 70 mg q.d. fasted) was 1 (16.7) n (%) and the “Abdominal pain (TEAE)” value ([4]; MAD panel 9, 70 mg q.d. fasted) was 1 (16.7) n (%). For the same compound, the “Any TEAE” value ([4]; MAD panel 9, 70 mg q.d. fasted) was 5 (83.3) n (%), the “Diarrhea (TEAE)” value ([4]; MAD panel 9, 70 mg q.d. fasted) was 3 (50.0) n (%) and the “Dizziness (TEAE)” value ([4]; MAD panel 9, 70 mg q.d. fasted) was 1 (16.7) n (%). The “Headache (TEAE)” value ([4]; MAD panel 9, 70 mg q.d. fasted) was 2 (33.3) n (%), the “Nausea (TEAE)” value ([4]; MAD panel 9, 70 mg q.d. fasted) was 1 (16.7) n (%) and the “Oropharyngeal pain (TEAE)” value ([4]; MAD panel 9, 70 mg q.d. fasted) was 0 n (%). For the same compound, the “Pain in extremity (TEAE)” value ([4]; MAD panel 9, 70 mg q.d. fasted) was 1 (16.7) n (%), the “Abdominal discomfort (TEAE)” value [4, 5] was 0 n (%) and the “Abdominal pain (TEAE)” value [4, 5] was 1 (16.7) n (%). For the same compound, the “Any TEAE” value [4, 5] was 4 (66.7) n (%), the “Diarrhea (TEAE)” value [4, 5] was 1 (16.7) n (%) and the “Dizziness (TEAE)” value [4, 5] was 0 n (%). The “Headache (TEAE)” value [4, 5] was 1 (16.7) n (%), the “Nausea (TEAE)” value [4, 5] was 2 (33.3) n (%) and the “Oropharyngeal pain (TEAE)” value [4, 5] was 1 (16.7) n (%). For the same compound, the “Pain in extremity (TEAE)” value [4, 5] was 1 (16.7) n (%).
